# Calls of active or inactive are those of the source. The rule behind the calls is not given here.
# Key:
# RNA [1] = assay: Binding affinity to complementary RNA (unknown origin) in sodium phosphate buffer assessed as melting temperature of PNA-RNA duplex; type: nucleic-acid assay
# RNA [2] = assay: Binding affinity to complementary RNA (unknown origin) with mismatch bases in sodium phosphate buffer; type: nucleic-acid assay
# Keratinocyte [3] = assay: Inhibition of PDZK1IP1 mRNA expression in human keratinocytes at 1 uM incubated for 24 hrs by RT-qPCR analysis; type: functional, cell-based
# Keratinocyte [4] = assay: Inhibition of PDZK1IP1 mRNA expression in human keratinocytes at 0.01 to 1 uM incubated for 24 hrs by RT-qPCR analysis; type: functional, cell-based; conditions: dose 0.01-1 µM
# Keratinocyte [5] = assay: Inhibition of PDZK1IP1 mRNA expression in human keratinocytes incubated for 24 hrs by RT-qPCR analysis; type: functional, cell-based
SMILES,Tm (RNA [1]),Activity (RNA [2]),inhibition (Keratinocyte [3]),inhibition (Keratinocyte [4]),inhibition (Keratinocyte [5])
Cc1cn(CC(=O)N(CCNC(=O)CN(CCNC(=O)CN(CCNC(=O)CN(CCNC(=O)CN(CCNC(=O)CN(CCNC(=O)CN(CCNC(=O)CN(CCNC(=O)CN(CCNC(=O)CN(CCNC(=O)CN(CCNC(=O)CN(CCNC(=O)CN(CCNC(=O)CN(CCN)C(=O)Cn2cc(C)c(=O)[nH]c2=O)C(=O)Cn2cnc3c(=O)[nH]c(NCCCCCCN)nc32)C(=O)Cn2cc(C)c(=O)[nH]c2=O)C(=O)Cn2cnc3c(=O)[nH]c(NCCCCCCN)nc32)C(=O)Cn2ccc(N)nc2=O)C(=O)Cn2cnc3c(N)nc(NCCCCCN)nc32)C(=O)Cn2cnc3c(=O)[nH]c(N)nc32)C(=O)Cn2cnc3c(=O)[nH]c(NCCCCCCN)nc32)C(=O)Cn2ccc(N)nc2=O)C(=O)Cn2cc(C)c(=O)[nH]c2=O)C(=O)Cn2ccc(N)nc2=O)C(=O)Cn2cc3cc(COCCN)[nH]c3nc2=O)C(=O)Cn2ccc(N)nc2=O)CC(=O)O)c(=O)[nH]c1=O,75 °C,inactive,Active,Mild_effect; Mild Dose Dependent Effect Observed,
Cc1cn(CC(=O)N(CCNC(=O)CN(CCNC(=O)CN(CCNC(=O)CN(CCNC(=O)CN(CCNC(=O)CN(CCNC(=O)CN(CCNC(=O)CN(CCNC(=O)CN(CCNC(=O)CN(CCNC(=O)CN(CCNC(=O)CN(CCNC(=O)CN(CCN)C(=O)Cn2cnc3c(N)nc(NCCCCCN)nc32)C(=O)Cn2ccc(N)nc2=O)C(=O)Cn2cc(C)c(=O)[nH]c2=O)C(=O)Cn2ccc(N)nc2=O)C(=O)Cn2cnc3c(N)nc(NCCCCCN)nc32)C(=O)Cn2ccc(N)nc2=O)C(=O)Cn2cnc3c(=O)[nH]c(NCCCCCCN)nc32)C(=O)Cn2cnc3c(=O)[nH]c(N)nc32)C(=O)Cn2cc3cc(COCCN)[nH]c3nc2=O)C(=O)Cn2cc(C)c(=O)[nH]c2=O)C(=O)Cn2ccc(N)nc2=O)C(=O)Cn2cc3cc(COCCN)[nH]c3nc2=O)CC(=O)NCCN(CC(=O)O)C(=O)Cn2ccc(N)nc2=O)c(=O)[nH]c1=O,74.1 °C,inactive,Active,Mild_effect; Mild Dose Dependent Effect Observed,
Cc1cn(CC(=O)N(CCNC(=O)CN(CCNC(=O)CN(CCNC(=O)CN(CCNC(=O)CN(CCNC(=O)CN(CCNC(=O)CN(CCNC(=O)CN(CCNC(=O)CN(CCN)C(=O)Cn2cnc3c(N)nc(NCCCCCN)nc32)C(=O)Cn2ccc(N)nc2=O)C(=O)Cn2cnc3c(=O)[nH]c(N)nc32)C(=O)Cn2cnc3c(=O)[nH]c(N)nc32)C(=O)Cn2ccc(N)nc2=O)C(=O)Cn2cc(C)c(=O)[nH]c2=O)C(=O)Cn2cc3cc(COCCN)[nH]c3nc2=O)C(=O)Cn2ccc(N)nc2=O)CC(=O)NCCN(CC(=O)NCCN(CC(=O)NCCN(CC(=O)NCCN(CC(=O)NCCN(CC(=O)NCCN(CC(=O)NCCN(CC(=O)NCCN(CC(=O)NCCN(CC(=O)NCCN(CC(=O)NCCN(CC(=O)O)C(=O)Cn2cnc3c(=O)[nH]c(N)nc32)C(=O)Cn2cnc3c(N)nc(NCCCCCN)nc32)C(=O)Cn2ccc(N)nc2=O)C(=O)Cn2ccc(N)nc2=O)C(=O)Cn2cnc3c(N)nc(NCCCCCN)nc32)C(=O)Cn2ccc(N)nc2=O)C(=O)Cn2cnc3c(=O)[nH]c(N)nc32)C(=O)Cn2cnc3c(=O)[nH]c(NCCCCCCN)nc32)C(=O)Cn2cc(C)c(=O)[nH]c2=O)C(=O)Cn2ccc(N)nc2=O)C(=O)Cn2ccc(N)nc2=O)c(=O)[nH]c1=O,> 90 °C,inactive,,,Dose-dependent-effect

# Source: ChEMBL document CHEMBL6120979, “Cell penetrable peptide nucleic acids targeting PDZK1IP1 with anti-inflammatory potential in human keratinocytes” (Bioorg Med Chem Lett, 2025)
